From US20070190129A1, “Sustained release dosage forms of ziprasidone” (Pfizer Inc., priority 2003, published 2007)
In brackets after ≈: the same amount, converted by molar mass. Structures can show the parent of a compound that is named as a salt. Where two headings read alike, the source gives them in different places. Values belong to the compound of their own block, whether it stands above or below them.

Experiments:
[1] = In vitro membrane permeation test; format: physicochemical; settings: for Concentration (permeate solution): feed MFD solution, 100 μgA/mL if all dissolved, 37° C.
Protocol: The ziprasidone coated crystals were evaluated in vitro using a membrane permeation test. An Accurel® PP 1E microporous polypropylene membrane was obtained from Membrana GmbH (Wuppertal, Germany). The membrane was washed in isopropyl alcohol and rinsed in methanol in a sonicating bath for 1 minute at ambient temperature, and then allowed to air dry at ambient temperature. The feed side of the membrane was then plasma-treated to render it hydrophilic by placing a sample of the membrane in a plasma chamber. The atmosphere of the plasma chamber was saturated with water vapor at a pressure of 550 mtorr. A plasma was then generated using radio frequency (RF) power inductively coupled into the chamber via annular electrodes at a power setting of 50 watts for 45 seconds. The contact angle of a drop of water placed on the surface of the plasma-treated membrane was about 40°. The contact angle of a drop of water placed on the permeate side of the same membrane was greater than about 110°.
A permeate reservoir was formed by gluing a sample of the plasma-treated membrane to a glass tube having an inside diameter of about 1 inch (2.54 cm) using an epoxy-based glue (LOCTITE® E-30CL HYSOL®) from Henkel Loctite Corp, Rocky Hill, Conn.). The feed-side of the membrane was oriented so that it was on the outside of the permeate reservoir, while the permeate-side of the membrane was oriented so that it was on the inside of the reservoir. The effective membrane area of the membrane on the permeate reservoir was about 4.9 cm^2. The permeate reservoir was placed into a glass feed reservoir. The feed reservoir was equipped with a magnetic stir bar and the reservoir was placed on a stir plate and the stir rate was set to 100 rpm during the test. The apparatus was placed into a chamber maintained at 37° C. for the duration of the test. Further details of the test apparatus and protocols are presented in co-pending U.S. patent application Ser. No. 60/557,897, entitled “Method and Device for Evaluation of Pharmaceutical Compositions,” filed Mar. 30, 2004 (attorney Docket No. PC25968), incorporated herein by reference.
To form the feed solution, a 1.39 mg sample of the coated crystals was weighed into the feed reservoir. To this was added 5 mL of MFD solution previously described, consisting of PBS solution containing 7.3 mM sodium taurocholic acid and 1.4 mM of 1-palmitoyl-2-oleyl-sn-glycero-3-phospocholine (0.5% NaTC/POPC). The concentration of ziprasidone in the feed solution, would have been 100 μgA/mL, if all of the ziprasidone had dissolved. The feed solution was mixed using a vortex mixer for 1 minute. Before the membrane contacted the feed solution, 5 mL of 60 wt% decenol in decane was placed into the permeate reservoir. Time zero in the test was the membrane was placed in contact with the feed solution. A […] aliquot of the permeate solution was collected at the times indicated. Samples were then diluted in […] IPA and analyzed using HPLC.
As a control, the membrane test was repeated using a 0.5-mg sample of crystalline ziprasidone alone, so that the concentration of drug would have been 100 μg/mL, if all of the drug had dissolved.
The maximum flux of drug across the membrane (in units of mgA/cm^2-min) was determined by performing a least-squares fit to the data in Table 3 from 0 to 60 minutes to obtain the slope, multiplying the slope by the permeate volume (5 mL), and dividing by the membrane area (4.9 cm^2).

[2] = physchem
From the text: To achieve efficacious blood levels over long periods of time, the sustained release dosage form should release ziprasidone to the gastrointestinal tract in a manner that allows ziprasidone to be absorbed for a sustained length of time. However, formulating ziprasidone into a sustained release dosage form presents a number of problems. […] Such low solubility at intestinal pH inhibits absorption of ziprasidone in the intestines.
In one embodiment, the solubility-improved form of ziprasidone is a high solubility salt form. It is known that some low-solubility drugs may be formulated in highly soluble salt forms that provide temporary improvements in the concentration of the drug in a use environment relative to another salt form of the drug.

[3] = Microcentrifuge dissolution test in MFD solution; format: physicochemical; design: AUC: concentration or dose not given beside the values; settings: for AUC / Dissolved Ziprasidone Concentration: MFD solution pH 6.5, 37° C.; for Dissolved Ziprasidone Concentration: 200 μgA/mL if all dissolved
Protocol: The tests were run in duplicate. The tubes were placed in a 37° C. temperature-controlled chamber, and 1.8 mL MFD solution at pH 6.5 and 290 mOsm/kg was added to each respective tube. The samples were quickly mixed using a vortex mixer for about 60 seconds. The samples were centrifuged at 13,000 G at 37° C. for 1 minute prior to collecting a sample. The resulting supernatant solution was then sampled and diluted 1:5 (by volume) with methanol. Samples were analyzed by high-performance liquid chromatography (HPLC) at a UV absorbance of 315 nm using a Zorbax RxC8 Reliance column and a mobile phase consisting of 55% (50 mM potassium dihydrogen phosphate, pH 6.5)/45% acetonitrile. Drug concentration was calculated by comparing UV absorbance of samples to the absorbance of drug standards. The contents of each tube were mixed on the vortex mixer and allowed to stand undisturbed at 37° C. until the next sample was taken. Samples were collected at 4, 10, 20, 40, 90, and 1200 minutes following administration to the MFD solution.
A similar test was performed with the crystalline ziprasidone free base as a control, and a sufficient amount of material was added so that the concentration of compound would have been 200 μgA/mL, if all of the ziprasidone had dissolved.
The concentration of ziprasidone obtained in these tests were used to determine the maximum dissolved concentration of ziprasidone (“MDC90”) and the area under the concentration-versus time (“AUC90”) during the initial ninety minutes.

[4] = target: D2 receptor (Homo sapiens, UniProt P14416); settings: cited from earlier work
D2 receptor, sequence (P14416 whole entry): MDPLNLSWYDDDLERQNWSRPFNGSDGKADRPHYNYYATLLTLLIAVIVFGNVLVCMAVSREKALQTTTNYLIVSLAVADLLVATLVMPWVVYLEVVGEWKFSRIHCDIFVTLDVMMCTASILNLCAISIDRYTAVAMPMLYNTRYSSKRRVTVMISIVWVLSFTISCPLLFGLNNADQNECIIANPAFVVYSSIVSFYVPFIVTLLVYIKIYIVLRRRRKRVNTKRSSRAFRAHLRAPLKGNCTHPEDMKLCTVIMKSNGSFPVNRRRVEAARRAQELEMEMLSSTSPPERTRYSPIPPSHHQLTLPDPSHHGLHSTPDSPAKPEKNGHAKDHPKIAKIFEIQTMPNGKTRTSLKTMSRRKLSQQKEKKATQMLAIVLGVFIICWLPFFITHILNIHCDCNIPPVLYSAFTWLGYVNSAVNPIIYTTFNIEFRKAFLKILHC

[5] = with food versus without; cited from earlier work
[6] = at the pH of the saturated solution
[7] = initial ninety minutes, MFD solution pH 6.5

Concentration (permeate solution) ([1]; 0 min): 0.0 μgA/mL
Concentration (permeate solution) ([1]; 20 min): 5.2 μgA/mL
Concentration (permeate solution) ([1]; 40 min): 8.1 μgA/mL
Concentration (permeate solution) ([1]; 60 min): 10.0 μgA/mL
Concentration (permeate solution) ([1]; 90 min): 11.4 μgA/mL
Concentration (permeate solution) ([1]; 120 min): 12.9 μgA/mL
Concentration (permeate solution) ([1]; 180 min): 18.1 μgA/mL
Concentration (permeate solution) ([1]; 245 min): 20.9 μgA/mL
Concentration (permeate solution) ([1]; 360 min): 22.6 μgA/mL
Maximum flux of Ziprasidone ([1]; least-squares fit 0 to 60 minutes, permeate volume 5 mL, membrane area 4.9 cm^2): 0.16 µgA/cm²·min
Compound: Cl.O=C1Cc2cc(CCN3CCN(c4nsc5ccccc45)CC3)c(Cl)cc2N1 [Crystalline Ziprasidone HCl]

Compound: O=C(O)c1ccccc1O [Salicylate]
Aqueous Solubility [2]: 58 µg/mL
pH of Saturated Solution [2]: 5.5

AUC90 (area under the concentration-versus time) ([3]; initial ninety minutes, MFD solution pH 6.5, hydrochloride monohydrate): 1,700 min*μgA/mL
MDC90 (maximum dissolved concentration of ziprasidone) ([3]; pH 6.5): 22 μgA/mL
Compound: O=C1Cc2cc(CCN3CCN(c4nsc5ccccc45)CC3)c(Cl)cc2N1 [Ziprasidone hydrochloride monohydrate, ziprasidone hydrochloride monohydrate]

AUC90 (area under the concentration-versus time) ([3]; initial ninety minutes, MFD solution pH 6.5, listed as Ziprasidone free base): 120 min*μgA/mL
MDC90 (maximum dissolved concentration of ziprasidone) ([3]; pH 6.5): 2 μgA/mL
pH of Saturated Solution [2]: 9.8
solubility ([2]; pH 6.5, aqueous buffer): ~0.2 µg/mL (≈ 0.484 µM)
solubility ([2]; pH 9.8, water): 0.2 µg/mL (≈ 0.484 µM)
Compound: O=C1Cc2cc(CCN3CCN(c4nsc5ccccc45)CC3)c(Cl)cc2N1 [ziprasidone, 5-[2-[4-(1,2-benzisothiazol-3-yl)-1-piperazinyl]ethyl]-6-chloro-1,2-dihydro-2H-indol-2-one]
D2 occupancy ([4]; blood ziprasidone concentration 16 ng/ml): approximately 50%
D2 occupancy ([4]; blood ziprasidone concentration 30 ng/ml): approximately 65%
D2 occupancy ([4]; blood ziprasidone concentration 50 ng/ml): approximately 75%
absorption in the presence of food [5]: increased up to two-fold

Compound: Fumarate
Aqueous Solubility [2]: 2000 µg/mL
pH of Saturated Solution [2]: 2.5

Compound: Maleate
Aqueous Solubility [2]: 118 µg/mL
pH of Saturated Solution [2]: 4.3

pH of Saturated Solution [2]: 2.3
Aqueous Solubility [2, 6]: 37 µg/mL
Compound: Phosphate

pH of Saturated Solution [2]: 6.0
Aqueous Solubility [2, 6]: 64 µg/mL
Compound: Tosylate

AUC ([3]; 0 min): 0 min-μgA/mL
Dissolved Ziprasidone Concentration ([3]; 0 min): 0 μgA/mL
AUC ([3]; 4 min): 110 min-μgA/mL
Dissolved Ziprasidone Concentration ([3]; 4 min): 55 μgA/mL
AUC ([3]; 10 min): 380 min-μgA/mL
Dissolved Ziprasidone Concentration ([3]; 10 min): 33 μgA/mL
AUC ([3]; 20 min): 640 min-μgA/mL
Dissolved Ziprasidone Concentration ([3]; 20 min): 20 μgA/mL
AUC ([3]; 40 min): 970 min-μgA/mL
Dissolved Ziprasidone Concentration ([3]; 40 min): 13 μgA/mL
AUC ([3]; 90 min): 1,600 min-μgA/mL
Dissolved Ziprasidone Concentration ([3]; 90 min): 11 μgA/mL
AUC ([3]; 1200 min): 11,200 min-μgA/mL
Dissolved Ziprasidone Concentration ([3]; 1200 min): 6 μgA/mL
AUC90 relative to that provided by the free base ([3]; MFD solution pH 6.5): 13 fold
MDC90 relative to that provided by the free base ([3]; MFD solution pH 6.5): 27 fold
AUC90 (area under the concentration-versus time) [3, 7]: 1,600 min*μgA/mL
MDC90 (maximum dissolved concentration of ziprasidone) [3, 7]: 55 μgA/mL
Compound: ziprasidone mesylate trihydrate
